The supplement of paper PMC11208160

Assay: recombinant barcode read abundance after kanamycin selection (control-corrected) (log10(CPM+1)); higher = more efficient recombination; sequences stand for … in AGTGCAGAGAAAATCGGCCAGTTTTCTCTGCCTGCAGTCCGCATGCCGT…AGATTTATGCAGCGGACTGCCTTTCTCCCAAAGTGATAAACCGGACAGTATCATGGACCGGTTTTCCCGGTAATCCGTATTTGCAAGGTTGGTTTCACT; site = the 11-nt target
Summary of the method: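 Values are log10(CPM+1) from a pooled E. coli screen of targets paired with IS621 bridge RNA target-binding loops. Recombination efficiency here means counts per million of recombinant-junction barcodes, averaged and control-corrected. Plates were chloramphenicol/ampicillin LB agar for the control and chloramphenicol/ampicillin/kanamycin with 0.1 mM IPTG, two replicates each.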
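Further: IS621 recombinase and bridge RNA in Escherichia coli cells.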

Sequence	recombinant barcode read abundance (log10)
TAAGATGCTTGGGTTCTAACCTGTTGCGG (site GCGACATCTAG)	0.0149
TAAGATGCTTGGGTTCTAACCTGTTGCGG (site TAAGATGCTCC)	1.78
TAAGGCCCTTGGGTTCTAACCTGTTGCTT (site TAAGGCCCTAA)	1.56
TAAGGCCCTTGGGTTCTAACCTGTTGCTT (site TCAGGCCCTAG)	0.33
TAAGTCCCTTGGGTTCTAACCTGTTGCCT (site AAAGTCCCTAG)	0.233
TAAGTCCCTTGGGTTCTAACCTGTTGCCT (site CAAGTCCCTAG)	0.583
TAAGTCCCTTGGGTTCTAACCTGTTGCCT (site GAAGTCCCTAG)	0.017
TAAGTCCCTTGGGTTCTAACCTGTTGCCT (site TAAGTCCCTAG)	1.9
TAATCGCCTTGGGTTCTAACCTGTTGCCT (site TAATCGACTAG)	0.122
TAATCGCCTTGGGTTCTAACCTGTTGCCT (site TAATCGCCTAG)	0.126
TAATCGCCTTGGGTTCTAACCTGTTGCCT (site TAATCGGCTAG)	0.102
TAATCGCCTTGGGTTCTAACCTGTTGCCT (site TAATCGTCTAG)	0
TAATCTCCTTGGGTTCTAACCTGTTGCGT (site GGTGGCTCTTG)	0.0934
TAATCTCCTTGGGTTCTAACCTGTTGCGT (site TAATCTCCTAC)	0.167
TAATGACCTTGGGTTCTAACCTGTTGCTT (site TAATGACCTAA)	0.816
TAATGACCTTGGGTTCTAACCTGTTGCTT (site TAATGACCTAT)	0.123
TAATGTACTTGGGTTCTAACCTGTTGCTT (site TAAAGTACTAA)	0.0506
TAATGTACTTGGGTTCTAACCTGTTGCTT (site TAACGTACTAA)	0.0626
TAATGTACTTGGGTTCTAACCTGTTGCTT (site TAAGGTACTAA)	0.195
TAATGTACTTGGGTTCTAACCTGTTGCTT (site TAATGTACTAA)	0.0687
TACAACACTTGGGTTCTAACCTGTTGCGT (site GTAGGTCCTCG)	0.318
TACAACACTTGGGTTCTAACCTGTTGCGT (site TACAACACTAC)	1.71

Sequence	recombinant barcode read abundance (log10)
TACAAGTCTTGGGTTCTAACCTGTTGCGG (site TACAAGGCTCC)	0.0774
TACAAGTCTTGGGTTCTAACCTGTTGCGG (site TACAAGTCTCC)	1.88
TACACGACTTGGGTTCTAACCTGTTGCGG (site TACACGACTCC)	1.51
TACACGACTTGGGTTCTAACCTGTTGCGG (site TACACTACTCG)	0
TACAGAGCTTGGGTTCTAACCTGTTGCGG (site TAAAGAGCTCC)	0.363
TACAGAGCTTGGGTTCTAACCTGTTGCGG (site TACAGAGCTCC)	2.36
TACAGAGCTTGGGTTCTAACCTGTTGCGG (site TAGAGAGCTCC)	0.127
TACAGAGCTTGGGTTCTAACCTGTTGCGG (site TATAGAGCTCC)	0.488
TACAGGACTTGGGTTCTAACCTGTTGCAG (site TACAGGACTCT)	2.15
TACAGGACTTGGGTTCTAACCTGTTGCAG (site TAGAGGACTCT)	0.274
TACAGTTCTTGGGTTCTAACCTGTTGCTT (site TACAGTTCTAA)	0.173
TACAGTTCTTGGGTTCTAACCTGTTGCTT (site TACCATTCTAA)	0.107
TACATCCCTTGGGTTCTAACCTGTTGCCT (site TACATCCCTAG)	0.915
TACATCCCTTGGGTTCTAACCTGTTGCCT (site TACATCCCTCG)	0.0996
TACATCCCTTGGGTTCTAACCTGTTGCCT (site TACATCCCTGG)	0.0929
TACATCCCTTGGGTTCTAACCTGTTGCCT (site TACATCCCTTG)	0.0395
TACCCACCTTGGGTTCTAACCTGTTGCAG (site CCGAATTCTAA)	0.159
TACCCACCTTGGGTTCTAACCTGTTGCAG (site TACCCACCTCT)	2.41
TACCCTACTTGGGTTCTAACCTGTTGCTA (site TACCCGCCTTA)	0.146
TACCCTACTTGGGTTCTAACCTGTTGCTA (site TACCCTACTTA)	0.736
TACCGAGCTTGGGTTCTAACCTGTTGCTG (site CCTGTCACTTG)	0.377
TACCGAGCTTGGGTTCTAACCTGTTGCTG (site TACCGAGCTCA)	0.604

Sequence	recombinant barcode read abundance (log10)
TACCGCTCTTGGGTTCTAACCTGTTGCTT (site TACAGCTCTAA)	0.0488
TACCGCTCTTGGGTTCTAACCTGTTGCTT (site TACCGCTCTAA)	1.01
TACCGCTCTTGGGTTCTAACCTGTTGCTT (site TACGGCTCTAA)	0.043
TACCGCTCTTGGGTTCTAACCTGTTGCTT (site TACTGCTCTAA)	0.158
TACCGTCCTTGGGTTCTAACCTGTTGCAT (site TACCGTCCTAT)	1.18
TACCGTCCTTGGGTTCTAACCTGTTGCAT (site TATCGTCCTAT)	0.155
TACCGTCCTTGGGTTCTAACCTGTTGCGG (site GCGTCCTCTAA)	0.312
TACCGTCCTTGGGTTCTAACCTGTTGCGG (site TACCGTCCTCC)	1.8
TACCTTACTTGGGTTCTAACCTGTTGCAG (site AGAAGATCTAG)	0.17
TACCTTACTTGGGTTCTAACCTGTTGCAG (site TACCTTACTCT)	0.897
TACGAATCTTGGGTTCTAACCTGTTGCCT (site TACGAATCTAG)	0.881
TACGAATCTTGGGTTCTAACCTGTTGCCT (site TACGAATCTCG)	0.0232
TACGACACTTGGGTTCTAACCTGTTGCCT (site TACGACACTAG)	1.9
TACGACACTTGGGTTCTAACCTGTTGCCT (site TCCGACACTAG)	0.0501
TACGACTCTTGGGTTCTAACCTGTTGCTT (site TACGACTCTAA)	1.73
TACGACTCTTGGGTTCTAACCTGTTGCTT (site TTCGACTCTTA)	0.0713
TACGCACCTTGGGTTCTAACCTGTTGCGA (site GTAATTACTAG)	0.297
TACGCACCTTGGGTTCTAACCTGTTGCGA (site TACGCACCTTC)	1.03
TACGCGGCTTGGGTTCTAACCTGTTGCCT (site TACGAGGCTAG)	0.0562
TACGCGGCTTGGGTTCTAACCTGTTGCCT (site TACGCGGCTAG)	0.335
TACGCGGCTTGGGTTCTAACCTGTTGCCT (site TACGGGGCTAG)	0.208
TACGCGGCTTGGGTTCTAACCTGTTGCCT (site TACGTGGCTAG)	0.192

Sequence	recombinant barcode read abundance (log10)
TACGCTCCTTGGGTTCTAACCTGTTGCCT (site TACGCTCCTAA)	0.0709
TACGCTCCTTGGGTTCTAACCTGTTGCCT (site TACGCTCCTAC)	0
TACGCTCCTTGGGTTCTAACCTGTTGCCT (site TACGCTCCTAG)	0.271
TACGCTCCTTGGGTTCTAACCTGTTGCCT (site TACGCTCCTAT)	0.452
TACGGCTCTTGGGTTCTAACCTGTTGCTT (site TACAGCTCTAA)	0.297
TACGGCTCTTGGGTTCTAACCTGTTGCTT (site TACCGCTCTAA)	0.0429
TACGGCTCTTGGGTTCTAACCTGTTGCTT (site TACGGCTCTAA)	1.51
TACGGCTCTTGGGTTCTAACCTGTTGCTT (site TACTGCTCTAA)	0.0509
TACTAAGCTTGGGTTCTAACCTGTTGCTT (site TACTAAGCTAA)	0.184
TACTAAGCTTGGGTTCTAACCTGTTGCTT (site TACTAAGCTAC)	0.0381
TACTAAGCTTGGGTTCTAACCTGTTGCTT (site TACTAAGCTAG)	0.0797
TACTAAGCTTGGGTTCTAACCTGTTGCTT (site TACTAAGCTAT)	0.321
TACTACCCTTGGGTTCTAACCTGTTGCGT (site TACTACCCTAC)	0.358
TACTACCCTTGGGTTCTAACCTGTTGCGT (site TGCCACCCTAC)	1.28
TACTCCTCTTGGGTTCTAACCTGTTGCGG (site CTAAAAGCTTG)	0.0539
TACTCCTCTTGGGTTCTAACCTGTTGCGG (site TACTCCTCTCC)	0.155
TACTCTTCTTGGGTTCTAACCTGTTGCCT (site GGTCAACCTCC)	0.0368
TACTCTTCTTGGGTTCTAACCTGTTGCCT (site TACTCTTCTAG)	0.279
TACTGAACTTGGGTTCTAACCTGTTGCCT (site TACTAAACTAG)	0.0356
TACTGAACTTGGGTTCTAACCTGTTGCCT (site TACTCAACTAG)	0.104
